Data from the NIST ThermoML archive (doi:10.1021/je9005757).
Numbers after ± are expanded uncertainties.

Test: cn = amount concentration of the nth substance listed, in mol/dm3
Conditions: 101 kPa, Liquid; for molar conductivity: Shedlovsky-type conductance cell; for binary diffusion coefficient: Open capillary

CN[C@@H](C)[C@H](O)c1ccccc1.Cl [ephedrine hydrochloride] + O
Conditions	binary diffusion coefficient, 298.15 K [m2/s]	binary diffusion coefficient, 310.15 K [m2/s]	molar conductivity, 283.15 K [S·m2/mol]	molar conductivity, 293.15 K [S·m2/mol]	molar conductivity, 298.15 K [S·m2/mol]	molar conductivity, 303.15 K [S·m2/mol]	molar conductivity, 310.15 K [S·m2/mol]	molar conductivity, 323.15 K [S·m2/mol]
c1 = 0.00125	1.15e-09	1.57e-09	–	–	–	–	–	–
c1 = 0.00184	–	–	0.006571 ± 1.5e-05	0.008375 ± 1.8e-05	0.009463 ± 2.1e-05	0.01041 ± 2.2e-05	0.01195 ± 2.6e-05	0.01495 ± 3.1e-05
c1 = 0.002438	–	–	0.006463 ± 1.5e-05	0.008198 ± 1.8e-05	0.009282 ± 2e-05	0.01023 ± 2.2e-05	0.01173 ± 2.5e-05	0.01471 ± 3.1e-05
c1 = 0.0025	1.1e-09	1.56e-09	–	–	–	–	–	–
c1 = 0.00303	–	–	0.006355 ± 1.4e-05	0.008059 ± 1.8e-05	0.009127 ± 2e-05	0.01006 ± 2.2e-05	0.01154 ± 2.5e-05	0.01449 ± 3e-05
c1 = 0.003614	–	–	0.00628 ± 1.4e-05	0.007907 ± 1.7e-05	0.008991 ± 2e-05	0.009914 ± 2.1e-05	0.01139 ± 2.4e-05	0.01427 ± 3e-05
c1 = 0.004191	–	–	0.006181 ± 1.4e-05	0.007775 ± 1.7e-05	0.00886 ± 1.9e-05	0.009802 ± 2.1e-05	0.01125 ± 2.4e-05	0.01408 ± 2.9e-05
c1 = 0.004761	–	–	0.006103 ± 1.4e-05	0.007663 ± 1.7e-05	0.008753 ± 1.9e-05	0.009663 ± 2.1e-05	0.01108 ± 2.4e-05	0.01392 ± 2.9e-05
c1 = 0.00499	1.09e-09	1.5e-09	–	–	–	–	–	–
c1 = 0.005324	–	–	0.006044 ± 1.4e-05	0.007564 ± 1.7e-05	0.008653 ± 1.9e-05	0.009567 ± 2.1e-05	0.01096 ± 2.4e-05	0.01377 ± 2.9e-05
c1 = 0.005881	–	–	0.00599 ± 1.3e-05	0.007468 ± 1.6e-05	0.008556 ± 1.9e-05	0.009474 ± 2e-05	0.01085 ± 2.3e-05	0.01356 ± 2.8e-05
c1 = 0.006431	–	–	0.005925 ± 1.3e-05	0.007377 ± 1.6e-05	0.008465 ± 1.9e-05	0.009363 ± 2e-05	0.01074 ± 2.3e-05	0.01344 ± 2.8e-05
c1 = 0.006975	–	–	0.00586 ± 1.3e-05	0.007288 ± 1.6e-05	0.008374 ± 1.9e-05	0.009271 ± 2e-05	0.01064 ± 2.3e-05	0.01332 ± 2.8e-05
c1 = 0.00746	1.03e-09	1.45e-09	–	–	–	–	–	–
c1 = 0.007513	–	–	0.005794 ± 1.3e-05	0.007199 ± 1.6e-05	0.008283 ± 1.8e-05	0.009197 ± 2e-05	0.01052 ± 2.3e-05	0.01318 ± 2.8e-05
c1 = 0.008044	–	–	0.005736 ± 1.3e-05	0.007119 ± 1.6e-05	0.008199 ± 1.8e-05	0.00911 ± 2e-05	0.01042 ± 2.2e-05	0.01307 ± 2.7e-05
c1 = 0.008569	–	–	0.005685 ± 1.3e-05	0.007044 ± 1.5e-05	0.00812 ± 1.8e-05	0.009028 ± 2e-05	0.01033 ± 2.2e-05	0.01295 ± 2.7e-05
c1 = 0.009089	–	–	0.005635 ± 1.2e-05	0.006974 ± 1.5e-05	0.008044 ± 1.8e-05	0.008949 ± 1.9e-05	0.01023 ± 2.2e-05	0.01284 ± 2.7e-05
c1 = 0.009602	–	–	0.005584 ± 1.2e-05	0.006908 ± 1.5e-05	0.007975 ± 1.8e-05	0.008878 ± 1.9e-05	0.01015 ± 2.2e-05	0.01274 ± 2.7e-05
c1 = 0.01	1e-09	1.41e-09	–	–	–	–	–	–
c1 = 0.01011	–	–	0.005537 ± 1.2e-05	0.006846 ± 1.5e-05	0.007908 ± 1.8e-05	0.008807 ± 1.9e-05	0.01007 ± 2.2e-05	0.01264 ± 2.7e-05
c1 = 0.01061	–	–	0.005491 ± 1.2e-05	0.006795 ± 1.5e-05	0.00784 ± 1.8e-05	0.008734 ± 1.9e-05	0.009982 ± 2.1e-05	0.01254 ± 2.6e-05
c1 = 0.01111	–	–	0.005446 ± 1.2e-05	0.006723 ± 1.5e-05	0.007774 ± 1.7e-05	0.008665 ± 1.9e-05	0.009901 ± 2.1e-05	0.01244 ± 2.6e-05
c1 = 0.0116	–	–	0.005401 ± 1.2e-05	0.006663 ± 1.5e-05	0.007709 ± 1.7e-05	0.008596 ± 1.9e-05	0.009821 ± 2.1e-05	0.01234 ± 2.6e-05
c1 = 0.01209	–	–	0.005359 ± 1.2e-05	0.006604 ± 1.4e-05	0.007646 ± 1.7e-05	0.008528 ± 1.8e-05	0.009742 ± 2.1e-05	0.01226 ± 2.6e-05
c1 = 0.01256	–	–	0.00532 ± 1.2e-05	0.006549 ± 1.4e-05	0.007586 ± 1.7e-05	0.008464 ± 1.8e-05	0.009673 ± 2.1e-05	0.01215 ± 2.5e-05
c1 = 0.01304	–	–	0.005281 ± 1.2e-05	0.006498 ± 1.4e-05	0.00753 ± 1.7e-05	0.008437 ± 1.8e-05	0.009602 ± 2.1e-05	0.01206 ± 2.5e-05
c1 = 0.01351	–	–	0.005244 ± 1.2e-05	0.006448 ± 1.4e-05	0.007474 ± 1.7e-05	0.008343 ± 1.8e-05	0.009533 ± 2e-05	0.01197 ± 2.5e-05
c1 = 0.01397	–	–	0.00521 ± 1.1e-05	0.0064 ± 1.4e-05	0.007422 ± 1.7e-05	0.008286 ± 1.8e-05	0.009467 ± 2e-05	0.01189 ± 2.5e-05
c1 = 0.01443	–	–	0.005176 ± 1.1e-05	0.006354 ± 1.4e-05	0.00737 ± 1.7e-05	0.00823 ± 1.8e-05	0.009401 ± 2e-05	0.01181 ± 2.5e-05
c1 = 0.01489	–	–	0.00514 ± 1.1e-05	0.006307 ± 1.4e-05	0.007318 ± 1.6e-05	0.008174 ± 1.8e-05	0.009336 ± 2e-05	0.01172 ± 2.5e-05
c1 = 0.01534	–	–	0.005107 ± 1.1e-05	0.00626 ± 1.4e-05	0.007267 ± 1.6e-05	0.008118 ± 1.8e-05	0.009271 ± 2e-05	0.01164 ± 2.4e-05
c1 = 0.01579	–	–	0.005075 ± 1.1e-05	0.006217 ± 1.4e-05	0.007217 ± 1.6e-05	0.008064 ± 1.7e-05	0.009208 ± 2e-05	0.01156 ± 2.4e-05
c1 = 0.01623	–	–	0.005042 ± 1.1e-05	0.006174 ± 1.3e-05	0.00717 ± 1.6e-05	0.008012 ± 1.7e-05	0.009146 ± 2e-05	0.01149 ± 2.4e-05
c1 = 0.01666	–	–	0.005011 ± 1.1e-05	0.006133 ± 1.3e-05	0.007125 ± 1.6e-05	0.007962 ± 1.7e-05	0.009088 ± 1.9e-05	0.01141 ± 2.4e-05
